From patent publication US9018208B2, “Heterocycles as potassium channel modulators” (Icagen Inc., priority 2007, dated 2015)
Where two headings read alike, the source gives them in different places.

Test system: SH-SY5Y M-currents (KCNQ2, KCNQ3 and KCNQ5)
Test: SH-SY5Y native cell line FLIPR assay (voltage-sensitive dye DiBAC)
Assay type: cell-based, mouse neuroblastoma, rat glioma hybrid cell line
Outline: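 Response is peak DiBAC fluorescence change, normalised to the maximum from a positive control agent, sampled every 30 s over 25 min. Before compound addition, SH-SY5Y cells differentiated with PGE1 plus isomethylbutylxanthine were dye-loaded for 1 h in EBSS with […] DiBAC.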

[1] = SH-SY5Y native cell line, FLIPR assay (Table 3), read-out: SH-SY5Y EC50
[2] = FLIPR assay, SH-SY5Y native cell line, Table 2, read-out: SH-SY5Y EC50
[3] = FLIPR assay, SH-SY5Y native cell line, Table 1, read-out: SH-SY5Y EC50

Row | EC50 [2] [µM] | Compound | also measured
1 | < 0.5 | CC(CC(=O)Nc1nc2ccc(F)cn2c1-c1ccc(OC(F)(F)F)c(F)c1)C(F)(F)F (stereo not drawn) [Compound 313, 4,4,4-trifluoro-N-(6-fluoro-3-(3-fluoro-4-(trifluoromethoxy)phenyl)imidazo[1,2-a]pyridin-2-yl)-3-methyl butanamide] | –
2 | < 0.5 | O=C(Cc1ccc(F)cc1)Nc1nc2ccc(F)cn2c1-c1cccc(Cl)c1 [Compound 148, N-(3-(3-chlorophenyl)-6-fluoroimidazo[1,2-a]pyridin-2-yl)-2-(4-fluorophenyl)acetamide] | –
3 | < 0.5 | CC(C)(C)CC(=O)Nc1nc2ccc(F)cn2c1-c1cccc(OC(F)(F)F)c1 [Compound 182, N-(6-fluoro-3-(3-(trifluoromethoxy)phenyl)imidazo[1,2-a]pyridin-2-yl)-3,3 dimethylbutanamide] | –
4 | 0.5 to 3 | O=C(CC1CC1)Nc1nc2ccc(F)cn2c1-c1ccc(OC(F)(F)F)cc1 [Compound 171, 2-cyclopropyl-N-(6-fluoro-3-(4-(trifluoromethoxy)phenyl)imidazo[1,2-a]pyridin-2-yl)acetamide] | –
5 | < 0.5 | O=C(CC1CCCCC1)Nc1nc2ccc(F)cn2c1-c1ccc(C(F)(F)F)cc1 [Compound 157, 2-cyclohexyl-N-(6-fluoro-3-(4-(trifluoromethyl)phenyl)imidazo[1,2-a]pyridin-2-yl)acetamide] | –
6 | < 0.5 | CC(C)(C)CC(=O)Nc1nc2ccc(F)cn2c1-c1ccc(Cl)cc1 [Compound 150, N-(3-(4-chlorophenyl)-6-fluoroimidazo[1,2-a]pyridin-2-yl)-3,3-dimethylbutanamide] | –
7 | < 0.5 | CC(C(=O)Nc1nc2ccc(F)cn2c1-c1ccc(C(F)(F)F)cc1)C(C)(C)C (stereo not drawn) [Compound 234, N-(6-fluoro-3-(4-(trifluoromethyl)phenyl)imidazo[1,2-a]pyridin-2-yl)-2,3,3-trimethylbutanamide] | –
8 | < 0.5 | O=C(Nc1nc2ccc(F)cn2c1-c1ccc(OC(F)(F)F)cc1)C1CCCCCC1 [Compound 291, N-(6-fluoro-3-(4-(trifluoromethoxy)phenyl)imidazopyridin-2-yl)cycloheptanecarboxamide] | –
9 | < 0.5 | O=C(Cc1ccc(Cl)cc1)Nc1nc2ccc(F)cn2c1-c1ccc(OC(F)(F)F)cc1 [Compound 238, 2-(4-chlorophenyl)-N-(6-fluoro-3-(4-(trifluoromethoxy)phenyl)imidazo[1,2-a]pyridin-2-yl)acetamide] | –
10 | 0.5 to 3 | CC(C)(C)CC(=O)Nc1nc2ccc(F)cn2c1-c1ccc(C#N)c(F)c1 [Compound 197, N-(3-(4-cyano-3-fluorophenyl)-6-fluoroimidazo[1,2-a]pyridin-2-yl)-3,3-dimethylbutanamide] | –
11 | 0.5 to 3 | CC(C)(C)CC(=O)Nc1nc2ccccn2c1-c1cccc(C(F)(F)F)c1 [Compound 336, 3,3-dimethyl-N-(3-(3-(trifluoromethyl)phenyl)imidazo[1,2-a]pyridin-2-yl)butanamide] | –

More lines, now with the values behind:

Row | Compound | EC50 [2] [µM] | also measured
12 | CC(C)(C)CC(=O)Nc1nc2ccc(F)cn2c1-c1ccncc1 [Compound 351, N-(6-fluoro-3-(pyridin-4-yl)imidazo[1,2-a]pyridin-2-yl)-3,3-dimethylbutanamide] | – | EC50 [1]: 3 to 10 µM
13 | CC(C)(C)Cc1c(NC(=O)CC2CC2)nc2ccc(C(F)(F)F)cn12 [Compound 57, 2-cyclopropyl-N-(3-neopentyl-6-(trifluoromethyl)imidazo[1,2-a]pyridin-2-yl)acetamide] | – | EC50 [3]: < 0.5 µM
14 | CC(C)CCc1c(NC(=O)CC(C)(C)C)nc2ccc(C(F)(F)F)cn12 [Compound 31, N-(3-isopentyl-6-(trifluoromethyl)imidazo[1,2-a]pyridin-2-yl)-3,3-dimethylbutanamide] | – | EC50 [3]: < 0.5 µM
15 | O=C(Cc1ccc(F)cc1)Nc1nc2ccc(Cl)cn2c1-c1ccc(F)cc1 [Compound 131, N-(6-chloro-3-(4-fluorophenyl)imidazo[1,2-a]pyridin-2-yl)-2-(4-fluorophenyl)acetamide] | < 0.5 | –
16 | CC(C)(C)CC(=O)Nc1nc2cc(Cl)c(Cl)cn2c1-c1ccc(OC(F)(F)F)cc1 [Compound 216, N-(6,7-dichloro-3-(4-(trifluoromethoxy)phenyl)imidazo[1,2-a]pyridin-2-yl)-3,3-dimethylbutanamide] | < 0.5 | –
17 | CC(C)(C)CC(=O)Nc1nc2ccc(F)cn2c1-c1ccc(C(C)(C)C#N)cc1 [Compound 175, N-(3-(4-(2-cyanopropan-2-yl)phenyl)-6-fluoroimidazo[1,2-a]pyridin-2-yl)-3,3-dimethylbutanamide] | 0.5 to 3 | –
18 | O=C(CC(F)(F)F)Nc1nc2ccc(F)cn2c1-c1ccccc1 [Compound 95, 3,3,3-trifluoro-N-(6-fluoro-3-phenylimidazo[1,2-a]pyridin-2-yl)propanamide] | 3 to 10 | –
19 | CC(CC(=O)Nc1nc2cc(Cl)c(Cl)cn2c1-c1ccc(OC(F)(F)F)cc1)C(F)(F)F (stereo not drawn) [Compound 219] | 0.5 to 3 | –
20 | CC1(CC(=O)Nc2nc3ccc(F)cn3c2-c2ccc(OC(F)(F)F)c(F)c2)CCCC1 [Compound 304, N-(6-fluoro-3-(3-fluoro-4-(trifluoromethoxy)phenyl)imidazo[1,2-a]pyridin-2-yl)-2-(1-methylcyclopentyl)acetamide] | < 0.5 | –
21 | CC(CC(=O)Nc1nc2ccc(F)cn2c1-c1ccc(F)cc1)C(F)(F)F (stereo not drawn) [Compound 144, 4,4,4-trifluoro-N-(6-fluoro-3-(4-fluorophenyl)imidazo[1,2-a]pyridin-2-yl)-3-methylbutanamide] | 0.5 to 3 | –
22 | O=C(CC1CCCC1)Nc1nc2ccc(F)cn2c1-c1ccc(C(F)(F)F)cc1 [Compound 156, 2-cyclopentyl-N-(6-fluoro-3-(4-(trifluoromethyl)phenyl)imidazo[1,2-a]pyridin-2-yl)acetamide] | < 0.5 | –
23 | O=C(Cc1ccc(F)cc1)Nc1nc2ccc(F)cn2c1-c1cc(C(F)(F)F)ccn1 [Compound 410, N-(6-fluoro-3-(4-(trifluoromethyl)pyridin-2-yl)imidazo[1,2-a]pyridin-2-yl)-2-(4-fluorophenyl)acetamide] | – | EC50 [1]: < 0.5 µM
24 | Cc1ccc(-c2c(NC(=O)CC(C)(C)C)nc3ccc(F)cn23)nc1 [Compound 359, N-(6-fluoro-3-(5-methylpyridin-2-yl)imidazo[1,2-a]pyridin-2-yl)-3,3-dimethylbutanamide] | – | EC50 [1]: 0.5 to 3 µM
25 | O=C(Nc1nc2ccc(F)cn2c1-c1ccc(OC(F)(F)F)cc1)C1CCC(F)(F)CC1 [Compound 326, 4,4-difluoro-N-(6-fluoro-3-(4-(trifluoromethoxy)phenyl)imidazo[1,2-a]pyridin-2-yl)cyclohexanecarboxamide] | < 0.5 | –
26 | O=C(CC1CCCC1)Nc1nc2ccc(F)cn2c1-c1cccc(OC(F)(F)F)c1 [Compound 264, 2-cyclopentyl-N-(6-fluoro-3-(3-(trifluoromethoxy)phenyl)imidazo[1,2-a]pyridin-2-yl)acetamide] | < 0.5 | –
27 | CC(C)C(C)C(=O)Nc1nc2ccc(F)cn2c1-c1cccc(C(F)(F)F)c1 (stereo not drawn) [Compound 288, N-(6-fluoro-3-(3-(trifluoromethyl)phenyl)imidazo[1,2-a]pyridin-2-yl)-2,3-dimethylbutanamide] | 0.5 to 3 | –
28 | CC(C)(C)CC(=O)Nc1nc2ccc(F)cn2c1-c1ccc(C#N)nc1 [Compound 350, N-(3-(6-cyanopyridin-3-yl)-6-fluoroimidazo[1,2-a]pyridin-2-yl)-3,3-dimethylbutanamide] | – | EC50 [1]: 0.5 to 3 µM
29 | CC(CC(=O)Nc1nc2ccc(C(F)(F)F)cn2c1C1CC1)C(F)(F)F (stereo not drawn) [Compound 69, N-(3-cyclopropyl-6-(trifluoromethyl)imidazo[1,2-a]pyridin-2-yl)-4,4,4-trifluoro-3-methylbutanamide] | – | EC50 [3]: < 0.5 µM
30 | O=C(Cc1ccc(F)cc1)Nc1cn2c(C(F)(F)F)cccc2n1 [Compound 13, 2-(4-fluorophenyl)-N-(5-(trifluoromethyl)imidazo[1,2-a]pyridin-2-yl)acetamide] | – | EC50 [3]: 3 to 10 µM
31 | CC1(CC(=O)Nc2nc3ccc(F)cn3c2-c2cccc(Cl)c2)CCCC1 [Compound 286, N-(3-(3-chlorophenyl)-6-fluoroimidazo[1,2-a]pyridin-2-yl)-2-(1-methylcyclopentyl)acetamide] | < 0.5 | –
32 | Cc1ccc2nc(NC(=O)Cc3ccc(F)cc3)c(-c3cc(C(F)(F)F)ccn3)n2n1 [Compound 395, 2-(4-fluorophenyl)-N-(6-methyl-3-(4-(trifluoromethyl)pyridin-2-yl)imidazo[1,2-b]pyridazin-2-yl)acetamide] | – | EC50 [1]: 3 to 10 µM
33 | Cc1cccc2nc(NC(=O)Cc3ccc(F)cc3)c(-c3nc4ccccc4s3)n12 [Compound 393, N-(3-(benzo[d]thiazol-2-yl)-5-methylimidazo[1,2-a]pyridin-2-yl)-2-(4-fluorophenyl)acetamide] | – | EC50 [1]: 0.5 to 3 µM
34 | O=C(CC(F)(F)F)Nc1nc2ccc(F)cn2c1-c1nc2ccccc2s1 [Compound 381, N-(3-(benzo[d]thiazol-2-yl)-6-fluoroimidazo[1,2-a]pyridin-2-yl)-3,3,3-trifluoropropanamide] | – | EC50 [1]: 0.5 to 3 µM; EC50 (read-out: SH-SY5Y_EC50): 2.13 µM
35 | CC1(CC(=O)Nc2nc3ccc(C(F)(F)F)cn3c2C2CCCC2)CCCC1 [Compound 56, N-(3-cyclopentyl-6-(trifluoromethyl)imidazo[1,2-a]pyridin-2-yl)-2-(1-methylcyclopentyl)acetamide] | – | EC50 [3]: < 0.5 µM
36 | CC(C)C(C)C(=O)Nc1nc2ccc(F)cn2c1-c1nc2ccccc2s1 (stereo not drawn) [Compound 373, N-(3-(benzo[d]thiazol-2-yl)-6-fluoroimidazo[1,2-a]pyridin-2-yl)-2,3-dimethylbutanamide] | – | EC50 [1]: 3 to 10 µM
37 | CC(C)(C)CC(=O)Nc1nc2ccc(F)cn2c1-c1cncc(C(F)(F)F)c1 [Compound 355, N-(6-fluoro-3-(5-(trifluoromethyl)pyridin-3-yl)imidazo[1,2-a]pyridin-2-yl)-3,3-dimethylbutanamide] | – | EC50 [1]: 3 to 10 µM
38 | O=C(Cc1ccc(F)cc1)Nc1nc2ccccn2c1-c1nccs1 [Compound 407, 2-(4-fluorophenyl)-N-(3-(thiazol-2-yl)imidazo[1,2-a]pyridin-2-yl)acetamide] | – | EC50 [1]: 0.5 to 3 µM
